Results from paper PMC6826928, “A New Natural Antioxidant Biomaterial from Cinnamomum osmophloeum Kanehira Leaves Represses Melanogenesis and Protects against DNA Damage” (Antioxidants, 2019).

Test system: T1, mushroom tyrosinase
T1 construct: gene PPO3; commercial native preparation from Merck; likely isoenzyme mixture
Assay: absorbance at […] nm, Lineweaver–Burk plot
Assay type: biochemical
Settings: no inhibitor, 0.2 M sodium phosphate pH 6.8, 25 °C

Row | Km (diphenolase activity) [mg/mL] | Km (monophenolase activity) [mg/mL] | SMILES
1 | 0.511 | – | N[C@@H](Cc1ccc(O)c(O)c1)C(=O)O [L-DOPA, L-3,4-dihydroxyphenylalanine]
2 | – | 0.534 | N[C@@H](Cc1ccc(O)cc1)C(=O)O [L-tyrosine]
